ChEMBL document CHEMBL5725458, “Histone deacetylase inhibitors and compositions and methods of use thereof” (2018)

Target: Histone deacetylase 4 (Homo sapiens, UniProt P56524)
Assay: HDAC4 Biochemical: The Class I HDAC activity of Class IIa Histone Deacetylase (HDAC) inhibitors was quantified by measuring the cellular histone deacetylase enzymatic activity using the fluorogenic substrate, Boc-Lys(Ac)-AMC. This was performed according to the procedure in Example 17, using Boc-Lys(Ac)-AMC substrate in place of Boc-Lys(TFA)-AMC.

Chain of Histone deacetylase 4 (P56524 whole entry): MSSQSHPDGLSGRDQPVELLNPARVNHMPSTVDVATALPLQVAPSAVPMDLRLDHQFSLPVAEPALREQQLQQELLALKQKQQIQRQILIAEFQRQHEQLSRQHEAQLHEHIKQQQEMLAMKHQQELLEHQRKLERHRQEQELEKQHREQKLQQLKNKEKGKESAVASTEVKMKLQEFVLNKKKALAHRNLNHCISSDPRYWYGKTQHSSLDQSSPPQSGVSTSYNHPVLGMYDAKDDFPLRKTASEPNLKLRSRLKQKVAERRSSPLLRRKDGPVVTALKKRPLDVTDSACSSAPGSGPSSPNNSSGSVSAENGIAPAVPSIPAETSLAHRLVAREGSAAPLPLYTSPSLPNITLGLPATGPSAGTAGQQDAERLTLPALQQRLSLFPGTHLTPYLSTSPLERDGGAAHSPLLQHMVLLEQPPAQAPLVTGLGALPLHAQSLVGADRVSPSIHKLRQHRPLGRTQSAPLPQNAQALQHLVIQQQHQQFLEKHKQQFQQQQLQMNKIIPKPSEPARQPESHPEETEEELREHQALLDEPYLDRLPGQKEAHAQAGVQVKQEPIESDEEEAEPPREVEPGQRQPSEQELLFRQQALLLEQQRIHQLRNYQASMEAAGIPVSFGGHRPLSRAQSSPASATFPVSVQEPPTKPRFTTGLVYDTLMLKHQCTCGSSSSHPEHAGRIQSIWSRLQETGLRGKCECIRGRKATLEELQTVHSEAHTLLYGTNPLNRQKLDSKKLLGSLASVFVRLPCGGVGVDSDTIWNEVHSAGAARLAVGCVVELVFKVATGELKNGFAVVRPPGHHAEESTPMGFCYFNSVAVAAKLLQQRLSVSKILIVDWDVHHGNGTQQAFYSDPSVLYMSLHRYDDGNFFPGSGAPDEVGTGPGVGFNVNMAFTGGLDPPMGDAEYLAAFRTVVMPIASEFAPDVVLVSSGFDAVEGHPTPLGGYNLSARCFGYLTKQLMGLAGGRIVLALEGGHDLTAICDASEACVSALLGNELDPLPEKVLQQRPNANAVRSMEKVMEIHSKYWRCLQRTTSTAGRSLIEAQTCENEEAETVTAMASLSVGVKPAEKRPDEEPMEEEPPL

IC50: 0.33 µM
SMILES: O=C(NC1(CN2CC3CCC(C3)C2)CC1)c1ccc(-c2noc(C(F)(F)F)n2)cc1
